# Calls of active or inactive are those of the source. No cut-off for these calls is given here.
# Experiments:
# PC-3 [1] = assay: Induction of apoptosis in PC3 measured as percentage of necrotic cells by biparametric PI/Annexin V assay at 3.6 uM after 48 hrs; format: functional, Homo sapiens
# PC-3 [2] = assay: Reduction in PC3 cell viability after 48 hrs by FDA flow cytometer assay; format: functional, cell-based; settings: Homo sapiens
# PC-3 [3] = assay: Induction of apoptosis in PC3 measured as percentage of necrotic cells by biparametric PI/Annexin V assay at 3.6 uM after 4 hrs; format: functional, Homo sapiens
# PC-3 [4] = assay: Induction of apoptosis in PC3 cells measured as percentage of living cells by biparametric PI/Annexin V assay at 3.6 uM after 8 hrs; format: functional, Homo sapiens
# PC-3 [5] = assay: Induction of apoptosis in PC3 measured as percentage of necrotic cells by biparametric PI/Annexin V assay at 3.6 uM after 8 hrs; format: functional, Homo sapiens
# PC-3 [6] = assay: Induction of apoptosis in PC3 cells measured as percentage of living cells by biparametric PI/Annexin V assay at 3.6 uM after 4 hrs; format: functional, Homo sapiens
# [7] = Ratio of K(app) for [A-T] to [G-C]
# PC-3 [8] = assay: Induction of apoptosis in PC3 measured as percentage of late apoptotic cells by biparametric PI/Annexin V assay at 3.6 uM after 4 hrs; format: functional, Homo sapiens
# PC-3 [9] = assay: Induction of apoptosis in PC3 cells measured as percentage of living cells by biparametric PI/Annexin V assay at 3.6 uM after 48 hrs; format: functional, Homo sapiens
# PC-3 [10] = assay: Induction of apoptosis in PC3 measured as percentage of early apoptotic cells by biparametric PI/Annexin V assay at 3.6 uM after 24 hrs; format: functional, Homo sapiens
# PC-3 [11] = assay: Cytotoxicity against PC3 cells by SRB assay after 48 hrs; format: functional; settings: Homo sapiens, PC-3, 48 h
# PC-3 [12] = assay: Induction of apoptosis in PC3 measured as percentage of early apoptotic cells by biparametric PI/Annexin V assay at 3.6 uM after 4 hrs; format: functional, Homo sapiens
# PC-3 [13] = assay: Induction of apoptosis in PC3 measured as percentage of necrotic cells by biparametric PI/Annexin V assay at 3.6 uM after 24 hrs; format: functional, Homo sapiens
# PC-3 [14] = assay: Induction of apoptosis in PC3 measured as percentage of late apoptotic cells by biparametric PI/Annexin V assay at 3.6 uM after 48 hrs; format: functional, Homo sapiens
# PC-3 [15] = assay: Induction of apoptosis in PC3 measured as percentage of early apoptotic cells by biparametric PI/Annexin V assay at 3.6 uM after 48 hrs; format: functional, Homo sapiens
# PC-3 [16] = assay: Induction of apoptosis in PC3 measured as percentage of early apoptotic cells by biparametric PI/Annexin V assay at 3.6 uM after 8 hrs; format: functional, Homo sapiens
# PC-3 [17] = assay: Induction of apoptosis in PC3 measured as percentage of late apoptotic cells by biparametric PI/Annexin V assay at 3.6 uM after 8 hrs; format: functional, Homo sapiens
# PC-3 [18] = assay: Induction of apoptosis in PC3 cells by DNA fragmentation assay; format: functional, cell-based; settings: Homo sapiens
# PC-3 [19] = assay: Induction of apoptosis in PC3 measured as percentage of late apoptotic cells by biparametric PI/Annexin V assay at 3.6 uM after 24 hrs; format: functional, Homo sapiens
# PC-3 [20] = assay: Induction of necrosis in PC3 cells by DNA fragmentation assay; format: functional, cell-based; settings: Homo sapiens
# PC-3 [21] = assay: Induction of apoptosis in PC3 cells measured as percentage of living cells by biparametric PI/Annexin V assay at 3.6 uM after 24 hrs; format: functional, Homo sapiens
# PC-3 [22] = assay: Induction of apoptosis in PC3 measured as percentage of necrotic cells by biparametric PI/Annexin V assay at 5.1 uM after 8 hrs; format: functional, Homo sapiens
# PC-3 [23] = assay: Induction of apoptosis in PC3 measured as percentage of late apoptotic cells by biparametric PI/Annexin V assay at 5.1 uM after 48 hrs; format: functional, Homo sapiens
# PC-3 [24] = assay: Induction of apoptosis in PC3 cells measured as percentage of living cells by biparametric PI/Annexin V assay at 5.1 uM after 8 hrs; format: functional, Homo sapiens
# PC-3 [25] = assay: Induction of apoptosis in PC3 measured as percentage of early apoptotic cells by biparametric PI/Annexin V assay at 5.1 uM after 4 hrs; format: functional, Homo sapiens
# PC-3 [26] = assay: Induction of apoptosis in PC3 measured as percentage of late apoptotic cells by biparametric PI/Annexin V assay at 5.1 uM after 4 hrs; format: functional, Homo sapiens
# PC-3 [27] = assay: Induction of apoptosis in PC3 measured as percentage of necrotic cells by biparametric PI/Annexin V assay at 5.1 uM after 24 hrs; format: functional, Homo sapiens
# PC-3 [28] = assay: Induction of apoptosis in PC3 measured as percentage of necrotic cells by biparametric PI/Annexin V assay at 5.1 uM after 48 hrs; format: functional, Homo sapiens
# PC-3 [29] = assay: Induction of apoptosis in PC3 measured as percentage of early apoptotic cells by biparametric PI/Annexin V assay at 5.1 uM after 8 hrs; format: functional, Homo sapiens
# PC-3 [30] = assay: Induction of apoptosis in PC3 cells measured as percentage of living cells by biparametric PI/Annexin V assay at 5.1 uM after 48 hrs; format: functional, Homo sapiens
# PC-3 [31] = assay: Induction of apoptosis in PC3 measured as percentage of early apoptotic cells by biparametric PI/Annexin V assay at 5.1 uM after 24 hrs; format: functional, Homo sapiens
# PC-3 [32] = assay: Induction of apoptosis in PC3 measured as percentage of early apoptotic cells by biparametric PI/Annexin V assay at 5.1 uM after 48 hrs; format: functional, Homo sapiens
# PC-3 [33] = assay: Induction of apoptosis in PC3 cells measured as percentage of living cells by biparametric PI/Annexin V assay at 5.1 uM after 4 hrs; format: functional, Homo sapiens
# PC-3 [34] = assay: Induction of apoptosis in PC3 cells measured as percentage of living cells by biparametric PI/Annexin V assay at 5.1 uM after 24 hrs; format: functional, Homo sapiens
# PC-3 [35] = assay: Induction of apoptosis in PC3 measured as percentage of late apoptotic cells by biparametric PI/Annexin V assay at 5.1 uM after 8 hrs; format: functional, Homo sapiens
# PC-3 [36] = assay: Induction of apoptosis in PC3 measured as percentage of necrotic cells by biparametric PI/Annexin V assay at 5.1 uM after 4 hrs; format: functional, Homo sapiens
# PC-3 [37] = assay: Induction of apoptosis in PC3 measured as percentage of late apoptotic cells by biparametric PI/Annexin V assay at 5.1 uM after 24 hrs; format: functional, Homo sapiens
smiles,measurement,setting,value
COc1ccc2nc3c(C(=O)NCCN(C)C)ccc(NCCCN(C)CCCN4C(=O)c5cccc6cccc(c56)C4=O)c3c(O)c2c1.Cl,Activity,PC-3 [1],24.4%
same,Activity,PC-3 [2],Time-dependent effect
same,Activity,PC-3 [3],16.4%
same,Activity,PC-3 [4],62.7%
same,Activity,PC-3 [5],32.9%
same,Activity,PC-3 [6],81.1%
same,Selectivity ratio,[7],30
same,Activity,PC-3 [8],1.2%
same,Activity,PC-3 [9],2.3%
same,Activity,PC-3 [10],25.9%
same,GI50,PC-3 [11],0.16 nM
same,LC50 (concentration for 50% net cell kill),PC-3 [11],3600 nM
same,TGI,PC-3 [11],14 nM
same,Activity,PC-3 [12],1.3%
same,Activity,PC-3 [13],22.3%
same,Activity,PC-3 [14],14.3%
same,Activity,PC-3 [15],59%
same,Activity,PC-3 [16],1.5%
same,Activity,PC-3 [17],2.9%
same,Activity,PC-3 [18],Active
same,Activity,PC-3 [19],16.3%
same,Activity,PC-3 [20],Active
same,Activity,PC-3 [21],35.5%
Cc1ccc2c(c1)c(=O)c1c(NCCCN(C)CCCN3C(=O)c4cccc5cccc(c45)C3=O)ccc3nnn2c31.Cl,Activity,PC-3 [22],42%
same,Activity,PC-3 [23],15.7%
same,Activity,PC-3 [2],Time-dependent effect
same,Activity,PC-3 [24],54.8%
same,Activity,PC-3 [25],0.9%
same,Activity,PC-3 [26],1.1%
same,Selectivity ratio,[7],1.7
same,Activity,PC-3 [27],33%
same,GI50,PC-3 [11],17 nM
same,LC50 (concentration for 50% net cell kill),PC-3 [11],5100 nM
same,TGI,PC-3 [11],1600 nM
same,Activity,PC-3 [28],27.3%
same,Activity,PC-3 [29],1.3%
same,Activity,PC-3 [30],1%
same,Activity,PC-3 [31],39%
same,Activity,PC-3 [32],57%
same,Activity,PC-3 [33],69.4%
same,Activity,PC-3 [18],Active
same,Activity,PC-3 [34],11.9%
same,Activity,PC-3 [35],1.9%
same,Activity,PC-3 [36],28.6%
same,Activity,PC-3 [37],16.1%
